Source: patent US10464929B2, “Organic molecules for terahertz tagging applications” (Council of Scientific & Industrial Research, priority 2014, dated 2019)

Test: Solubility of the THz molecular tags in various solvents
Assay type: physicochemical

Solubility in THF (solvent THF (tetrahydrofuran)) | Solubility in Diethyl Ether (solvent Diethyl Ether) | Solubility in Toluene (solvent Toluene) | SMILES
Turbid |  |  | O=C(NCCNC(=O)Nc1ccccc1)Nc1ccccc1 [PhU—C2—UPh, 1,1′-(ethane-1,2-diyl)bis(3-phenylurea)]
 | Turbid | Turbid | O=C(Nc1ccccc1)Nc1cccc(NC(=O)c2ccccc2)n1 [PhU—Ph—AP, N-(6-(3-phenylureido)pyridin-2-yl)benzamide]
